We go through 31 compounds from patent publication US20130303532A1, “IMIDAZOPYRAZINES FOR USE AS MPS-1 AND TKK INHIBITORS IN THE TREATMENT HYPERPROLIFERATIVE DISORDERS” (BAYER INTELLECTUAL PROPERTY GmbH, priority 2010, published 2013).

pIC50: −log10 of the molar value.

For the first assay, the target named is T1, human kinase Mps-1 (Homo sapiens, UniProt P33981).
T1 construct: N-terminally GST-tagged human full length recombinant Mps-1 kinase; GST (N); purchased Invitrogen, Karslruhe, Germany PV4071
T1 sequence (P33981 1-857): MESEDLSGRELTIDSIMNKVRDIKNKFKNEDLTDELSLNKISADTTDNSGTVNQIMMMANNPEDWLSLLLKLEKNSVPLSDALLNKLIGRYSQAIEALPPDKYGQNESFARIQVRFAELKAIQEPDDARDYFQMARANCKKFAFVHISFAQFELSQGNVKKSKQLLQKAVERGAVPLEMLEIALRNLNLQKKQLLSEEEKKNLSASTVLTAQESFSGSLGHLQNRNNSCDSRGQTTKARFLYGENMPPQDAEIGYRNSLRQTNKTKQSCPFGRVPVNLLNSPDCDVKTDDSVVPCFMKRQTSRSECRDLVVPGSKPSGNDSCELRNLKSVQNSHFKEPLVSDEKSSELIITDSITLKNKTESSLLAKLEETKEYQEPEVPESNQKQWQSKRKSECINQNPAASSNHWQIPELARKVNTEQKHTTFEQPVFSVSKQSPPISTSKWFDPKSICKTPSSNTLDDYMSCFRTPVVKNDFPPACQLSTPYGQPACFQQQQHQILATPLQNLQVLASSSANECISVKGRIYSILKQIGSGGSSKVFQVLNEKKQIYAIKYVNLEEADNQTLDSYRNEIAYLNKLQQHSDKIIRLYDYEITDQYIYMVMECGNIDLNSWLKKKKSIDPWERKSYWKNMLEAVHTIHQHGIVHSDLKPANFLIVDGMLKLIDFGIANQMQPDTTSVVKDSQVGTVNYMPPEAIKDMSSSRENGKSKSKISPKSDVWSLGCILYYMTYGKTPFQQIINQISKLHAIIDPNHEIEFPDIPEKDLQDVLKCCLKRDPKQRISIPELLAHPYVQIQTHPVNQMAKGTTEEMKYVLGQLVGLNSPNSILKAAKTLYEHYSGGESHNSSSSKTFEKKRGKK
Briefly: Mps-1 kinase assay (TR-FRET). The settings on record: Mps1 IC50 [nM], N-terminally GST-tagged human full length recombinant Mps-1; 10 μM ATP; 1 μM biotinylated peptide substrate; 60 min at 22° C. The class given is biochemical.
For the compound `O=C(NC1CC1)c1ccc(-c2cnc3c(NCc4ccco4)nccn23)cc1Cl` [Example 7-50, 2-chloro-N-cyclopropyl-4-{8-[(furan-2-ylmethyl)amino]imi-dazo[1,2-a]pyrazin-3-yl}benzamide], the IC50 is 209 nM. On to `CC(C)CNc1nccn2c(-c3ccc(C(=O)NC4CC4)c(Cl)c3)cnc12` [Example 7-51, 2-chloro-N-cyclopropyl-4-{8-[(2-methylpropyl)amino]imi-dazo[1,2-a]pyrazin-3-yl}benzamide], for which the IC50 was 15.7 nM.

Regarding `N#CCCNc1nccn2c(-c3ccc(C(=O)NC4CC4)c(Cl)c3)cnc12` [Example 7-52, 2-chloro-4-{8-[(2-cyanoethyl)amino]imi-dazo[1,2-a]pyrazin-3-yl}-N-cyclopropylbenzamide], the IC50 stood at 272 nM. For `O=C(NC1CC1)c1ccc(-c2cnc3c(NCC(F)(F)C(F)(F)F)nccn23)cc1Cl` [Example 7-53, 2-chloro-N-cyclopropyl-4-{8-[(2,2,3,3,3-pentafluoropropyl)amino]imi-dazo[1,2-a]pyrazin-3-yl}benzamide], the IC50 was found to be 106 nM.

For the compound `NC(=O)CCNc1nccn2c(-c3ccc(C(=O)NC4CC4)c(Cl)c3)cnc12` [Example 7-54, 4-{8-[(3-amino-3-oxopropyl)amino]imi-dazo[1,2-a]pyrazin-3-yl}-2-chloro-N-cyclopropylbenzamide], the IC50 was determined as 4870 nM.

In the case of `O=C(NC1CC1)c1ccc(-c2cnc3c(NCC(O)C(F)(F)F)nccn23)cc1Cl` (stereo not shown) [Example 7-55, 2-chloro-N-cyclopropyl-4-{8-[(3,3,3-trifluoro-2-hydroxypropyl)amino]imi-dazo[1,2-a]pyrazin-3-yl}benzamide], the IC50 is 175 nM. On the same count and under the same terms, the result for `O=C(NC1CC1)c1ccc(-c2cnc3c(NCCC(F)(F)F)nccn23)cc1Cl` [Example 7-56, 2-chloro-N-cyclopropyl-4-{8-[(3,3,3-trifluoropropyl)amino]imi-dazo[1,2-a]pyrazin-3-yl}benzamide] reads 43 nM; that for `CC(O)CNc1nccn2c(-c3ccc(C(=O)NC4CC4)c(Cl)c3)cnc12` (stereo not shown) [Example 7-57, 2-chloro-N-cyclopropyl-4-{8-[(2-hydroxypropyl)amino]imi-dazo[1,2-a]pyrazin-3-yl}benzamide], 401 nM.

With `COCCCNc1nccn2c(-c3ccc(C(=O)NC4CC4)c(Cl)c3)cnc12` [Example 7-58, 2-chloro-N-cyclopropyl-4-{8-[(3-methoxypropyl)amino]imi-dazo[1,2-a]pyrazin-3-yl}benzamide], the concentration for half-maximal inhibition (IC50) came out at 485 nM. Same read-out and setting: the result for `O=C(NC1CC1)c1ccc(-c2cnc3c(NCC(F)F)nccn23)cc1Cl` [Example 7-59, 2-chloro-N-cyclopropyl-4-{8-[(2,2-difluoroethyl)amino]imi-dazo[1,2-a]pyrazin-3-yl}benzamide] reads 239 nM; that for `Cn1ccc(CNc2nccn3c(-c4ccc(C(=O)NC5CC5)c(Cl)c4)cnc23)n1` [Example 7-60, 2-chloro-N-cyclopropyl-4-(8-{[(1-methyl-1H-pyrazol-3-yl)methyl]amino}imi-dazo[1,2-a]pyrazin-3-yl)benzamide], 767 nM; that for `Cn1nccc1CNc1nccn2c(-c3ccc(C(=O)NC4CC4)c(Cl)c3)cnc12` [Example 7-61, 2-chloro-N-cyclopropyl-4-(8-{[(1-methyl-1H-pyrazol-5-yl)methyl]amino}imi-dazo[1,2-a]pyrazin-3-yl)benzamide], 269 nM. In the case of `Cn1cc(CNc2nccn3c(-c4ccc(C(=O)NC5CC5)c(Cl)c4)cnc23)cn1` [Example 7-62, 2-chloro-N-cyclopropyl-4-(8-{[(1-methyl-1H-pyrazol-4-yl)methyl]amino}imi-dazo[1,2-a]pyrazin-3-yl)benzamide], the half-maximal inhibitory concentration (IC50) was 308 nM. Same read-out and setting: in the case of `CCOC(C)CNc1nccn2c(-c3ccc(C(=O)NC4CC4)c(Cl)c3)cnc12` (stereo not shown) [Example 7-63, 2-chloro-N-cyclopropyl-4-{8-[(2-ethoxypropyl)amino]imi-dazo[1,2-a]pyrazin-3-yl}benzamide] it was 409 nM. On the same count and under the same terms, in the case of `CC(C)(O)CNc1nccn2c(-c3ccc(C(=O)NC4CC4)c(Cl)c3)cnc12` [Example 7-64, 2-chloro-N-cyclopropyl-4-{8-[(2-hydroxy-2-methylpropyl)amino]imi-dazo[1,2-a]pyrazin-3-yl}benzamide] it was 538 nM; in that of `O=C(NC1CC1)c1ccc(-c2cnc3c(NCc4ccc(Cl)s4)nccn23)cc1Cl` [Example 7-65, 2-chloro-4-(8-{[(5-chlorothiophen-2-yl)methyl]amino}imi-dazo[1,2-a]pyrazin-3-yl)-N-cyclopropylbenzamide], 25 nM; in that of `O=C(NC1CC1)c1ccc(-c2cnc3c(NC[C@@H](O)CO)nccn23)cc1Cl` [Example 7-68, 2-chloro-N-cyclopropyl-4-{8-[(2,3-dihydroxypropyl)amino]imi-dazo[1,2-a]pyrazin-3-yl}benzamide], 1720 nM. With `O=C(NC1CC1)c1ccc(-c2cnc3c(NCCO)nccn23)cc1O` [Example 7-70, N-cyclopropyl-2-hydroxy-4-{8-[(2-hydroxyethyl)amino]imi-dazo[1,2-a]pyrazin-3-yl}benzamide], the IC50 was found to be 414 nM.

As to `O=C(NC1CC1)c1ccc(-c2cnc3c(NCCCN4CCOCC4)nccn23)cc1O` [Example 7-71, N-cyclopropyl-2-hydroxy-4-(8-{[3-(morpholin-4-yl)propyl]amino}imi-dazo[1,2-a]pyrazin-3-yl)benzamide], the IC50 stood at 304 nM.

Turning to `O=C(NC1CC1)c1ccc(-c2cnc3c(NCC4CCCO4)nccn23)cc1O` (stereo not shown) [Example 7-72, N-cyclopropyl-2-hydroxy-4-{8-[(tetrahydrofuran-2-ylmethyl)amino]imi-dazo[1,2-a]pyrazin-3-yl}benzamide], the IC50 is 36.3 nM. On the same count and under the same terms, the result for `O=C(NC1CC1)c1ccc(-c2cnc3c(NCCCN4CCCC4=O)nccn23)cc1O` [Example 7-73, N-cyclopropyl-2-hydroxy-4-(8-{[3-(2-oxopyrrolidin-1-yl)propyl]amino}imi-dazo[1,2-a]pyrazin-3-yl)benzamide] reads 593 nM; that for `O=C(NC1CC1)c1ccc(-c2cnc3c(NCc4ccc(F)cc4)nccn23)cc1O` [Example 7-74, N-cyclopropyl-4-{8-[(4-fluorobenzyl)amino]imi-dazo[1,2-a]pyrazin-3-yl}-2-hydroxybenzamide], 98.2 nM; that for `O=C(NC1CC1)c1ccc(-c2cnc3c(NCc4cccs4)nccn23)cc1O` [Example 7-76, N-cyclopropyl-2-hydroxy-4-{8-[(thiophen-2-ylmethyl)amino]imi-dazo[1,2-a]pyrazin-3-yl}benzamide], 35.8 nM.

Staying with this assay, now noted: N-terminally GST-tagged human full length recombinant Mps-1; 10 μM ATP; 1 μM biotinylated peptide substrate; 60 min at 22° C.; read-out: Mps1 IC50.
Turning to `CC(=O)NCCNc1nccn2c(-c3ccc(C(=O)NC4CC4)c(Cl)c3)cnc12` [Example 7-45, 4-(8-{[2-(acetylamino)ethyl]ami-no)imidazo[1,2-a]pyrazin-3-yl)-2-chloro-N-cyclopropylbenzamide], the negative-log IC50 (pIC50) was 5.76. As to `O=C(NC1CC1)c1ccc(-c2cnc3c(NCC4CC4)nccn23)cc1Cl` [Example 7-46, 2-chloro-N-cyclopropyl-4-{8-[(cyclopropylmethyl)ami-no]imidazo[1,2-a]pyrazin-3-yl}benzamide], the pIC50 is 7.14. Regarding `O=C(NC1CC1)c1ccc(-c2cnc3c(NCc4ccccn4)nccn23)cc1Cl` [Example 7-47, 2-chloro-N-cyclopropyl-4-{8-[(pyridin-2-ylmethyl)amino]imidazo[1,2-a]pyrazin-3-yl}benzamide], the pIC50 was 5.92. On the same count and under the same terms, in the case of `O=C(NC1CC1)c1ccc(-c2cnc3c(NCc4cccnc4)nccn23)cc1Cl` [Example 7-48, 2-chloro-N-cyclopropyl-4-{8-[(pyridin-3-ylmethyl)amino]imidazo[1,2-a]pyrazin-3-yl}benzamide] it was 6.29. On the same count and under the same terms, in the case of `O=C(NC1CC1)c1ccc(-c2cnc3c(NCc4ccncc4)nccn23)cc1Cl` [Example 7-49, 2-chloro-N-cyclopropyl-4-{8-[(pyridin-4-ylmethyl)amino]imidazo[1,2-a]pyrazin-3-yl}benzamide] it was 6.41. Same read-out and setting: the result for `CS(=O)(=O)CCCNc1nccn2c(-c3ccc(C(=O)NC4CC4)c(Cl)c3)cnc12` [Example 7-66, 2-chloro-N-cyclopropyl-4-(8-{[3-(methylsulfonyl)propyl]ami-no}imidazo[1,2-a]pyrazin-3-yl)benzamide] reads 6.28; that for `CCCNc1nccn2c(-c3ccc(C(=O)NC4CC4)c(O)c3)cnc12` [Example 7-69, N-cyclopropyl-2-hydroxy-4-[8-(propylamino)imidazo[1,2-a]pyrazin-3-yl]benzamide], 7.63; that for `O=C(NC1CC1)c1ccc(-c2cnc3c(NCc4ccccc4)nccn23)cc1O` [Example 7-75, 4-[8-(benzylamino)imidazo[1,2-a]pyrazin-3-yl]-N-cyclopropyl-2-hydroxybenzamide], 5.69.
